Measurements: PubChem BioAssay AID212 (DTP/NCI, 2004)
Values joined by “and” are separate entries in the source; they are usually repeats but may differ in a detail not shown here. Identical values can stand only once. Inconclusive results are not listed.

Test system: BDF1 mice, colon carcinoma 38 sc, T/C %
Assay: NCI In Vivo Anticancer Drug Screen. Data for tumor model Colon Carcinoma 38 (subcutaneous) in B6D2F1 (BDF1) mice
Procedure, shortened: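 Mice with transplanted tumors are treated with compound or vehicle. Survival or tumor size is then measured in both groups. The ratio of treated to control gives the reported figure.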

[1] = endpoint: median tumor weight (est.), dose: 50.0 mg/kg/injection, schedule: Q07DX002 (ip), vehicle: saline, higher = larger tumour

Structure (SMILES): OC(C1CO1)C(O)C1CO1 (stereo not drawn)
- T/C (endpoint: median tumor weight (est.), dose: 1.0 mg/kg/injection, schedule: Q07DX002 (ip), vehicle: saline, higher = larger tumour): 83 % of control
- T/C (endpoint: median tumor weight (est.), dose: 1.0 mg/kg/injection, schedule: Q07DX003 (ip), vehicle: saline, higher = larger tumour): 71 % of control and 81 % of control
- T/C (endpoint: median tumor weight (est.), dose: 2.0 mg/kg/injection, schedule: Q07DX002 (ip), vehicle: saline, higher = larger tumour): 114 % of control
- T/C (endpoint: median tumor weight (est.), dose: 2.0 mg/kg/injection, schedule: Q07DX003 (ip), vehicle: saline, higher = larger tumour): 70 % of control and 86 % of control
- T/C (endpoint: median tumor weight (est.), dose: 4.0 mg/kg/injection, schedule: Q07DX003 (ip), vehicle: saline, higher = larger tumour): 5 % of control and 30 % of control
- T/C (endpoint: median tumor weight (est.), dose: 8.0 mg/kg/injection, schedule: Q07DX002 (ip), vehicle: saline, higher = larger tumour): 58 % of control
- T/C (endpoint: median tumor weight (est.), dose: 8.0 mg/kg/injection, schedule: Q07DX003 (ip), vehicle: saline, higher = larger tumour): 8 % of control and 20 % of control

Structure (SMILES): CCN(CC)CC[n+]1ccc2c(C)c3[nH]c4ccc(O)cc4c3c(C)c2c1
- T/C (endpoint: median tumor weight (est.), dose: 3.12 mg/kg/injection, schedule: Q07DX002 (ip), vehicle: saline, higher = larger tumour): 38 % of control
- T/C (endpoint: median tumor weight (est.), dose: 3.12 mg/kg/injection, schedule: Q07DX002 (ip), vehicle: suspension in saline, higher = larger tumour): 82 % of control
- T/C (endpoint: median tumor weight (est.), dose: 6.25 mg/kg/injection, schedule: Q07DX002 (ip), vehicle: suspension in saline, higher = larger tumour): 103 % of control
- T/C (endpoint: median tumor weight (est.), dose: 12.5 mg/kg/injection, schedule: Q07DX002 (ip), vehicle: suspension in saline, higher = larger tumour): 98 % of control
- T/C (endpoint: median tumor weight (est.), dose: 25.0 mg/kg/injection, schedule: Q07DX002 (ip), vehicle: saline, higher = larger tumour): 15 % of control and 29 % of control
- T/C (endpoint: median tumor weight (est.), dose: 25.0 mg/kg/injection, schedule: Q07DX002 (ip), vehicle: suspension in saline, higher = larger tumour): 57 % of control
- T/C [1]: 5 % of control
- T/C (endpoint: median tumor weight (est.), dose: 50.0 mg/kg/injection, schedule: Q07DX002 (ip), vehicle: suspension in saline, higher = larger tumour): 22 % of control

Structure (SMILES): CC1=CC2OC3C(OC(=O)c4ccccc4)C(OC(=O)c4ccccc4)C(C)(C2(COC(=O)c2ccccc2)CC1)C31CO1 (stereo not drawn)
- T/C (endpoint: median tumor weight (est.), dose: 3.0 mg/kg/injection, schedule: Q07DX002 (ip), vehicle: saline with Tween-80, higher = larger tumour): 166 % of control
- T/C (endpoint: median tumor weight (est.), dose: 6.0 mg/kg/injection, schedule: Q07DX003 (ip), vehicle: saline with Tween-80, higher = larger tumour): 152 % of control
- T/C (endpoint: median tumor weight (est.), dose: 12.0 mg/kg/injection, schedule: Q07DX003 (ip), vehicle: saline with Tween-80, higher = larger tumour): 184 % of control

Structure (SMILES): CCCCCC[C@@H](O)C/C=C\CCCCCCCC(=O)OCCO
- T/C [1]: 113 % of control
- T/C (endpoint: median tumor weight (est.), dose: 100.0 mg/kg/injection, schedule: Q07DX002 (ip), vehicle: saline, higher = larger tumour): 72 % of control
- T/C (endpoint: median tumor weight (est.), dose: 200.0 mg/kg/injection, schedule: Q07DX002 (ip), vehicle: saline, higher = larger tumour): 113 % of control
- T/C (endpoint: median tumor weight (est.), dose: 400.0 mg/kg/injection, schedule: Q07DX002 (ip), vehicle: saline, higher = larger tumour): 117 % of control
- T/C (endpoint: median tumor weight (est.), dose: 800.0 mg/kg/injection, schedule: Q07DX002 (ip), vehicle: saline, higher = larger tumour): 74 % of control
- T/C (endpoint: median tumor weight (est.), dose: 1600.0 mg/kg/injection, schedule: Q07DX002 (ip), vehicle: saline, higher = larger tumour): 85 % of control

Structure (SMILES): CCCCCCCCCCCCCCCCCC(=O)OCC(=O)OCC(=O)[C@]1(O)Cc2c(O)c3c(c(O)c2[C@@H](OC2CC(N)C(O)C(C)O2)C1)C(=O)c1c(OC)cccc1C3=O (stereo partly drawn)
- T/C (endpoint: median survival time, dose: 11.5 mg/kg/injection, schedule: Q07DX002 (iv), vehicle: saline, higher = longer survival): 111 % of control
- T/C (endpoint: median tumor weight (est.), dose: 1.69 mg/kg/injection, schedule: Q07DX002 (ip), vehicle: saline with Tween-80, higher = larger tumour): 70 % of control
- T/C (endpoint: median tumor weight (est.), dose: 3.38 mg/kg/injection, schedule: Q07DX002 (ip), vehicle: saline with Tween-80, higher = larger tumour): 93 % of control
- T/C (endpoint: median tumor weight (est.), dose: 6.75 mg/kg/injection, schedule: Q07DX002 (ip), vehicle: saline with Tween-80, higher = larger tumour): 79 % of control and 89 % of control and 97 % of control
- T/C (endpoint: median tumor weight (est.), dose: 27.0 mg/kg/injection, schedule: Q07DX002 (ip), vehicle: saline with Tween-80, higher = larger tumour): 18 % of control and 37 % of control

Structure (SMILES): CC[C@]1(O)C[C@H](OC2CC(N(C)C)C(OC3CC(O)C(O)C(C)O3)C(C)O2)c2c(cc3c(c2O)C(=O)c2c(O)ccc(O)c2C3=O)[C@H]1C(=O)OC (stereo partly drawn)
- T/C (endpoint: median tumor weight (est.), dose: 0.38 mg/kg/injection, schedule: Q07DX003 (ip), vehicle: Klucel (hydroxypropylcellulose) (HPC), higher = larger tumour): 109 % of control
- T/C (endpoint: median tumor weight (est.), dose: 0.5 mg/kg/injection, schedule: Q07DX003 (ip), vehicle: Klucel (hydroxypropylcellulose) (HPC), higher = larger tumour): 45 % of control
- T/C (endpoint: median tumor weight (est.), dose: 0.75 mg/kg/injection, schedule: Q07DX003 (ip), vehicle: Klucel (hydroxypropylcellulose) (HPC), higher = larger tumour): 62 % of control
- T/C (endpoint: median tumor weight (est.), dose: 1.0 mg/kg/injection, schedule: Q07DX003 (ip), vehicle: Klucel (hydroxypropylcellulose) (HPC), higher = larger tumour): 25 % of control
- T/C (endpoint: median tumor weight (est.), dose: 1.5 mg/kg/injection, schedule: Q07DX003 (ip), vehicle: Klucel (hydroxypropylcellulose) (HPC), higher = larger tumour): 66 % of control
- T/C (endpoint: median tumor weight (est.), dose: 3.0 mg/kg/injection, schedule: Q07DX003 (ip), vehicle: Klucel (hydroxypropylcellulose) (HPC), higher = larger tumour): 73 % of control
- T/C (endpoint: median tumor weight (est.), dose: 4.0 mg/kg/injection, schedule: Q07DX003 (ip), vehicle: Klucel (hydroxypropylcellulose) (HPC), higher = larger tumour): 35 % of control
- T/C (endpoint: median tumor weight (est.), dose: 6.0 mg/kg/injection, schedule: Q07DX003 (ip), vehicle: Klucel (hydroxypropylcellulose) (HPC), higher = larger tumour): 79 % of control
- T/C (endpoint: median tumor weight (est.), dose: 8.0 mg/kg/injection, schedule: Q07DX003 (ip), vehicle: Klucel (hydroxypropylcellulose) (HPC), higher = larger tumour): 21 % of control
